Test results from publication PMC6627744, “A Tiny Change Makes a Big Difference in the Anti-Parasitic Activities of an HDAC Inhibitor” (International Journal of Molecular Sciences, 2019).
Where two headings read alike, the source gives them in different places.

What was measured:
T. gondii = experiment: Anti-T. gondii activity in infected HFF monolayers, strain not given; assay type: cell-based, Toxoplasma gondii
Method: (§1) Confluent Human Foreskin Fibroblast (HFF) monolayers were infected with YFP-type I Rh kindly provided by B. Striepen or Tomato-type II Pru kindly provided by Professor N. Blanchard (Toulouse), at 5 × 10^4 parasites per well. They were then centrifuged for 30 s at 250 g and incubated for 30 min in a water bath at 37 °C to allow invasion. The wells were washed three times with PBS to eliminate extracellular parasites, and the drugs were added at concentrations ranging from 0.01 to 3.0 μM. After incubation for 24 h at 37 °C in a humidified atmosphere containing 5% CO2, the cells were fixed in 2.5% methanol-free formaldehyde (Tebu-bio, Le Perray-en-Yvelines, France)/PBS for 30 min at room temperature. Nuclei were stained with Hoechst 33258 (2 µg/mL, Molecular Probes) for 20 min and washed three times with water. The number of infected cells, i.e., cells harboring a parasitophorous vacuole (see supplementary data S3 for an example), and the number of parasites per vacuole were determined using an Olympus ScanR microscope (×20 objective) and ScanR software. The parasitic index in % compared to the control was calculated as follows: [Parasitic index (PI) = ((number of parasite/100 cells in treated wells) × (% of infected macrophage in treated well)/(number of parasite/100 cells in untreated wells) × (% of infected macrophage in untreated wells)) × 100].

[1] = tested on: HeLa cell nuclear extract, which contains mainly HDACs 1, 2, 6, and 8; experiment: HDAC inhibition, HeLa nuclear extract (fluorometric HDAC assay kit); assay type: biochemical, human; conditions: HeLa nuclear extracts; ratio of IC50 versus 363
Method: (§2) The HDACi effect against HeLa nuclear extracts and recombinant proteins were measured using a fluorometric HDAC assay kit (Active Motif, La Hulpe, Belgium) according to the manufacturer’s instructions. Briefly, 30 μL of HeLa nuclear extract (Active Motif, Belgium) or HDAC 1 recombinant protein (Active Motif, Belgium) were mixed with 5 μL of a 10× compound and 10 μL of assay buffer. A positive control, containing trichostatin A at a final concentration of 2 μM, was analyzed for each independent experiment. A fluorogenic substrate (10 μL) was added, and the reaction was allowed to proceed for 30 min at room temperature and then stopped by the addition of a developer containing trichostatin A. The fluorescence was monitored after 30 min at excitation and emission wavelengths of 360 and 460 nm, respectively.

recombinant HDAC1 enzyme = target: T1, recombinant HDAC1 enzyme (Homo sapiens, UniProt Q13547); experiment: HDAC inhibition, recombinant HDAC1 (fluorometric HDAC assay kit); assay type: biochemical; conditions: Figure 1B
T1 construct: purchased Active Motif
Method: as §2

[2] = tested on: RH type I strain of T. gondii; experiment: Anti-T. gondii activity in infected HFF monolayers, type I strain; assay type: cell-based, Toxoplasma gondii
Method: as §1

[3] = tested on: Pru type II strain of T. gondii; experiment: Anti-T. gondii activity in infected HFF monolayers, type II strain; assay type: cell-based; conditions: Toxoplasma gondii, 24 h, read-out: IC50, inhibition of T. gondii type II strain
Method: as §1

[4] = tested on: RH type I strain of T. gondii; set-up: method as in PMID 29414107; conditions: cited from earlier work
[5] = tested on: Pru type II strain of T. gondii; set-up: method as in PMID 29414107; conditions: read-out: IC50, inhibition of T. gondii type II strain; cited from earlier work

T1 sequence (Q13547 whole entry): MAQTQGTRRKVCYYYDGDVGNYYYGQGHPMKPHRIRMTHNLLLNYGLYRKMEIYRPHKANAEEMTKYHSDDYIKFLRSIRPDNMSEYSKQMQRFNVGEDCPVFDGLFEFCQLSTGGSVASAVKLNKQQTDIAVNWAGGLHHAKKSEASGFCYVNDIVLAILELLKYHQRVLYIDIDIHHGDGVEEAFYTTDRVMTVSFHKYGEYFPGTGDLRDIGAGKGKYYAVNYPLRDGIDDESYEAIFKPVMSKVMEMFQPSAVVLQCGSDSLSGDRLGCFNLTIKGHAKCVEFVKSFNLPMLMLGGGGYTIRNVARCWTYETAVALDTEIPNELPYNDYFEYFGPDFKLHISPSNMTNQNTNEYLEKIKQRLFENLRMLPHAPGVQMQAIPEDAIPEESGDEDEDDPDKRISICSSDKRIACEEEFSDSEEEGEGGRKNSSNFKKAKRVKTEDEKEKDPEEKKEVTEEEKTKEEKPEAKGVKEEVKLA

CCc1nc(N)nc(N)c1-c1ccc(Cl)cc1 [Pyrimethamine, reference compound]
IC50 (T. gondii; Toxoplasma gondii, positive control, strain not stated): 453 nM

COc1ccccc1CNC(=O)c1ccc(C(=O)NO)cc1 [Compound D16, 1-N-hydroxy-4-N-[(2-methoxyphenyl)methyl]benzene-1,4-dicarboxamide]
fold less efficient in HDACi activity compared to 363 [1]: 13 fold
potency on deacetylase activity of recombinant HDAC1, compared to 363 (recombinant HDAC1 enzyme): lower potency
anti-parasitic activity (T. gondii; even at concentrations higher than 1000 nM, RH type I and Pru type II strains (Figure 1C)): No anti-parasitic activity

COc1cccc(CC(=O)Nc2ccc(C(=O)NO)cc2)c1 [Compound 363, N-hydroxy-4-[2-(3-methoxyphenyl)acetamido]benzamide]
IC50 ([2]; Toxoplasma gondii, type I (RH) strain, HFF, 24 h, read-out: IC50, inhibition of T. gondii type I strain): 153 nM
fold higher susceptibility of type I strains than type II strains ([2]; type I versus type II, this work): 5.5 fold
IC50 [3]: 853 nM
IC50 ([4]; type I strain, read-out: IC50, inhibition of T. gondii type I strain): 350 nM
fold higher susceptibility of type I strains than type II strains ([4]; type I versus type II): 6 fold
IC50 [5]: 2270 nM
